One experiment relates to T1, NeNaC8.
T1 construct: full length, homomeric in Xenopus laevis oocytes (pRSSP vector, cRNA)
Kind of experiment: two-electrode voltage clamp, Xenopus oocytes. To be noted: -70 mV, read-out: Apparent IC50. In kind it is cell-based, Nematostella vectensis. On the technique in general: In two-electrode clamp one electrode senses voltage and the other passes current.

The subject of a further experiment is T2, NeNaC2.
T2 construct: full length, homomeric in Xenopus laevis oocytes (pRSSP vector, cRNA); residues H141 and G516 (DEG position)
Kind of experiment: two-electrode voltage clamp, Xenopus oocytes. To be noted: channel activated with pH 6.0, -70 mV. In kind it is cell-based, Nematostella vectensis.

We go through two molecules from article PMC9822975, “Functional analysis in a model sea anemone reveals phylogenetic complexity and a role in cnidocyte discharge of DEG/ENaC ion channels” (Communications Biology, 2023).

Where two headings read alike, the source gives them in different places.

By IC50 is commonly meant the midpoint of a concentration-inhibition curve.

Turning to `N=C(N)c1ccc(N=NNc2ccc(C(=N)N)cc2)cc1` [diminazene], the IC50 in the experiment with NeNaC8 (1.8 mM Ca2+ (standard bath), pH 7.4, not competitive with Ca2+, n = 14) was 0.124 ± 0.075 µM; with NeNaC2 (complete inhibition at high concentrations, n = 14) it was 2.4 ± 0.9 µM.

As to `N=C(N)NC(=O)c1nc(Cl)c(N)nc1N` [amiloride], the IC50 turned out to be 310 ± 180 µM with NeNaC8 (channel opened by bath with 100 nM Ca2+, n = 11) and 1300 ± 2300 µM with NeNaC2 (inhibition incomplete even at high concentrations, n = 10).
